According to patent publication US20160106102A1, “KNOWN AND NEW HETEROCYCLIC COMPOUNDS AS PEST CONTROL AGENTS” (BAYER CROPSCIENCE AKTIENGESELLSCHAFT, priority 2013, published 2016):
Where two headings read alike, the source gives them in different places.

How the values were obtained:
[1] = log P determination by LC-MS in the acidic range; type: physicochemical; conditions: for log P (acid): LC-MS in the acidic range
Description: The LC-MS determination in the acidic range is effected at pH 2.7 using 0.1% aqueous formic acid and acetonitrile (contains 0.1% formic acid) as eluents, linear gradient from 10% acetonitrile to 95% acetonitrile. Alternatively, the determination is effected in the acidic range at pH 2.3 using 0.1% aqueous phosphoric acid and acetonitrile as eluents; linear gradient from 10% acetonitrile to 95% acetonitrile.

Myzus persicae [2] = assay: Myzus persicae - sachet test; type: in vivo; conditions: 100% = all animals killed
How it was run: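 Green peach aphids feed through a sealed sachet on nutrient medium containing the water-diluted formulation (solvents: 2% N-methylpyrrolidone, 2% diacetone alcohol). Percent mortality read after the chosen time; 100% means all animals killed.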

Myzus persicae [3] = assay: Myzus persicae - spray test; type: in vivo; conditions: application rate of 500 g/ha, after 6 days, sprayed Chinese cabbage leaf discs infested by all stages, 100% = all aphids killed; for pest or weed control at 500 g/ha: Myzus persicae, foliar, 144 h, read-out: efficacy in %
Method: Myzus persicae—spray test Solvent: 78 parts by weight of acetone • • 1.5 parts by weight of dimethylformamide Emulsifier: 0.5 part by weight of alkylaryl polyglycol ether To produce an appropriate active ingredient formulation, 1 part by weight of active ingredient is mixed with the specified amounts of solvent and emulsifier, and the concentrate is diluted to the desired concentration with emulsifier-containing water. Discs of Chinese cabbage leaves (Brassica pekinensis) infested by all stages of the green peach aphid (Myzus persicae) are sprayed with an active ingredient formulation of the desired concentration. After 6 days, the efficacy in % is determined. 100% means that all the aphids have been killed; 0% means that no aphids have been killed.

[4] = application rate of 6 ppm in nutrient medium
[5] = application rate of 30 ppm in nutrient medium

| SMILES | log P (acid) [1] | efficacy (kill in %) (Myzus persicae [2]; [4]) | efficacy (kill in %) (Myzus persicae [2]; [5]) | efficacy in % (Myzus persicae [3]) | also measured |
| --- | --- | --- | --- | --- | --- |
| O=C(Nc1cc(Br)n(Cc2ncccn2)n1)c1cccnc1 [Compound I-1-140, N-[5-Bromo-1-(pyrimidin-2-ylmethyl)-1H-pyrazol-3-yl]nicotinamide] | – | – | – | – | chromatographic logP ([1]; pH 2.7, LC-MS in the acidic range, read-out: log P (acid)): 1.1; chromatographic logP ([1]; pH 2.7, values given in the synthesis examples and NMR lists, read-out: HPLC-MS: log P): 1.1; pest or weed control at 6 ppm (Myzus persicae [2]; Myzus persicae, application rate of 6 ppm in nutrient medium, read-out: efficacy (kill in %)): 100%; pest or weed control at 30 ppm (Myzus persicae [2]; Myzus persicae, application rate of 30 ppm in nutrient medium, read-out: efficacy (kill in %)): 100%; pest or weed control at 500 g/ha (Myzus persicae [3]): 90% |
| Cc1cc(N(CC#N)C(=O)c2cccnc2)nn1Cc1ncccn1 [Compound I-1-262] | 0.84 | 100% | 100% | 90% | – |
| C#CCn1ccc(NC(=O)c2cccnc2)n1 [Compound I-1-54] | 0.69 | 100% | 100% | 90% | – |
| O=C(Nc1ncn(Cc2ccccc2Cl)n1)c1cccnc1 [Compound I-2-7, N-[1-(2-Chlorobenzyl)-1H-1,2,4-triazol-3-yl]nicotinamide] | – | – | – | – | chromatographic logP ([1]; HPLC on a reversed-phase column (C 18), pH 2.7, values given in the synthesis examples and NMR lists, read-out: HPLC-MS: log P): 1.22; chromatographic logP ([1]; reversed-phase HPLC column (C18), pH 2.7, Table 2, compounds of the formula (I-2), acidic range pH 2.7 or pH 2.3, read-out: log P (acid)): 1.22; pest or weed control at 500 g/ha (Myzus persicae [3]): 100% |
| O=C(Nc1ccn(Cc2ccc(Cl)nc2)n1)c1cccnc1 [Compound I-1-27] | 1.22 | 100% | 100% | 90% | – |
| Cc1cc(NC(=O)c2cccnc2)nn1Cn1nccc1C(F)(F)F [Compound I-1-227] | 1.72 | 100% | 100% | 90% | – |
| Cc1cc(NC(=O)c2cccnc2)nn1Cc1cccc(F)c1 [Compound I-1-60] | 1.9 | 100% | 100% | 100% | – |
| Cc1cc(NC(=O)c2cccnc2)nn1C(=O)c1ncccn1 [Compound I-1-345] | 1.11 | 100% | 100% | 90% | – |
| Cc1cc(NC(=O)c2cccnc2)nn1Cc1cscn1 [Compound I-1-295] | 0.95 | 100% | 100% | 100% | – |
| Cc1cc(NC(=O)c2cccnc2)nn1Cc1ncccn1 [Compound I-1-1] | 0.77 | 100% | 100% | 90% | – |
| Cn1ccc(NC(=O)c2cccnc2)n1 [Compound I-1-198] | 0.22 | 100% | 100% | 90% | – |
| Cc1cc(NC(=O)c2cccnc2)nn1-c1ncc(C(F)(F)F)cc1Cl [Compound I-1-44] | 2.2 | 100% | 100% | 100% | – |
| C#CCn1nc(NC(=O)c2cccnc2)cc1CC [Compound I-1-40] | 1.31 | 100% | 100% | 90% | – |
| Cc1cc(NC(=O)c2cccnc2)nn1-c1cccc(F)c1 [Compound I-1-202] | 1.85 | 80% | 100% | 90% | – |
| CCOC(=O)CN(C)C(=O)Cn1nc(NC(=O)c2cncc(F)c2)cc1C [Compound I-1-61] | 1.35 | – | 100% | 80% | HPLC-MS: log P ([1]; values given in the synthesis examples and NMR lists): Compound No. I-1-61: HPLC-MS: logP = 1.35; mass (m/z): 378.1 (M + H)^+; 1H NMR (CD3CN) 1.21-1.28 (m, |
| Cc1cc(NC(=O)c2cccnc2)nn1C(=O)NC(C)c1ncccn1 (centres unmarked) [Compound I-1-333] | 1.29 | 100% | 100% | 90% | – |
| Cc1cc(N(C)C(=O)c2cccnc2)nn1CC1CCCO1 (centres unmarked) [Compound I-1-181] | 1.05 | – | 80% | 90% | – |
| O=C(Nc1ccn(-c2ncccc2F)n1)c1cccnc1 [Compound I-1-30] | 1.15 | 100% | 100% | 90% | – |
| O=C(Nc1nn(Cc2ncccn2)c2ccccc12)c1cncc(F)c1 [Compound I-1-216] | 1.54 | 100% | 100% | 90% | – |
| Cc1cc(N(C)C(=O)c2cccnc2)nn1CC[S+](C)[O-] (centres unmarked) [Compound I-1-186] | 0.16 | 100% | 100% | 100% | – |
| Cc1cc(NC(=O)c2cccnc2)nn1Cc1cc(C(=O)O)n(-c2ncccc2Cl)n1 [Compound I-1-156] | 1.18 | 100% | 100% | 90% | – |
| COC(=O)C(C)(C)NC(=O)Cn1nc(NC(=O)c2cncc(F)c2)cc1C [Compound I-1-41] | 1.33 | – | – | 90% | – |
| Cc1cccc(Cn2nc(NC(=O)c3cccnc3)cc2C)c1 [Compound I-1-50] | – | – | 100% | 90% | – |
| COCCn1nc(N(C)C(=O)c2cccnc2)cc1C [Compound I-1-179] | 0.79 | – | – | 100% | – |

The next lines start with results.

| log P (acid) [1] | SMILES | efficacy (kill in %) (Myzus persicae [2]; [4]) | efficacy (kill in %) (Myzus persicae [2]; [5]) | efficacy in % (Myzus persicae [3]) | also measured |
| --- | --- | --- | --- | --- | --- |
| 0.59 | Cc1cc(NC(=O)c2cccnc2)nn1CS(C)(=O)=O [Compound I-1-244] | 100% | 100% | 90% | – |
| 1.87 | CSCCC(=O)n1nc(NC(=O)c2cccnc2)cc1C [Compound I-1-266] | 100% | 100% | 90% | – |
| 0.97 | CNC(=O)n1nc(NC(=O)c2cccnc2)cc1C [Compound I-1-292] | 100% | 100% | 100% | – |
| 0.49 | Cc1cc(NC(=O)c2cccnc2)nn1CCS(C)(=O)=O [Compound I-1-182] | 100% | 100% | 100% | – |
| 0.45 | CC[S+]([O-])Cn1nc(NC(=O)c2cccnc2)cc1C (centres unmarked) [Compound I-1-245] | 100% | 100% | 100% | – |
| 1.55 | CSCCNC(=O)n1nc(NC(=O)c2cccnc2)cc1C [Compound I-1-167] | 100% | 100% | 90% | – |
| 1.17 | Cc1ccnn1Cn1nc(NC(=O)c2cccnc2)cc1C [Compound I-1-220] | 100% | 100% | 90% | – |
| −0.21 | Cc1cc(NC(=O)c2cccnc2)nn1Cc1nccn1C [Compound I-1-293] | 100% | 100% | 90% | – |
| 0.93 | C#CCn1nc(NC(=O)c2cccnc2)cc1C [Compound I-1-19] | 100% | 100% | 100% | – |
| 1.79 | Cc1cc(NC(=O)c2cccnc2)nn1C(=O)OCC(F)(F)F [Compound I-1-259] | 100% | 100% | 90% | – |
| 0.84 | Cc1cc(NC(=O)c2cccnc2)nn1CCF [Compound I-1-5] | 100% | 100% | 90% | – |
| 1.03 | Cc1cc(NC(=O)c2cccnc2)nn1S(C)(=O)=O [Compound I-1-277] | 100% | 100% | 100% | – |
| 1.19 | Cc1cc(Cn2nc(NC(=O)c3cccnc3)cc2C)no1 [Compound I-1-283] | 100% | 100% | 100% | – |
| 0.46 | CC[S+]([O-])CCn1nc(NC(=O)c2cccnc2)cc1C (centres unmarked) [Compound I-1-190] | 100% | 100% | 100% | – |
| 1.89 | Cc1cc(NC(=O)c2cccnc2)nn1C(=O)NCC(C)C [Compound I-1-320] | 100% | 100% | 90% | – |
